This is an account of results in patent publication US10053422B2, “Compounds for the treatment of mTOR pathway related diseases” (Pitney Pharmaceuticals Pty Limited, priority 2012, dated 2018).

SMILES strings stand for the structures. Entries after “also recorded” stand apart in the source; their conditions may differ. Where two headings read alike, the source gives them in different places. A value given as a limit tells only on which side of the number the result lay.

For one data set, the system named is A2780 cells. As to the kind of experiment: SRB cell proliferation assay, A2780. The format is cell-based, human. The procedure: (§1) Cell proliferation was assessed using the sulforhodamine B (SRB) assay. Cells seeded in 96-well plate (2,000-3,000 cell/well) were treated with MPL (0, 1, 5, 10, 25, 50 and 100 μmol/L) for 72 h. Cells were then fixed, washed and stained with 100 μl of 0.4% (w/v) SRB dissolved in 1% acetic acid. Unbound dye was removed by five washes with 1% acetic acid before air drying. Bound SRB was solubilized with 100 μl of 10 mM Tris base (pH 10.5) and the absorbance read at 570 nm. Exactly the same procedure was used to assess MPL-SO2. Both agents were dissolved in ethanol and diluted with media to give the final concentrations required for cell culture assays.

In another data set the test system is 1A9 cells. As to the kind of experiment: SRB cell proliferation assay, 1A9. The format is cell-based. As to conditions: Homo sapiens. The procedure:
as §1

The next data set deals with T47-D cells. As to the kind of experiment: SRB cell proliferation assay, T47-D. In kind it is cell-based. As to conditions: Homo sapiens, T47D. The procedure:
as §1

A further data set relates to PET cells (mesothelioma). As to the kind of experiment: SRB cell proliferation assay, PET. To be noted: for IC50: PET. The format is cell-based. The procedure:
as §1

For a further data set, the system named is YOU cells (mesothelioma). As to the kind of experiment: SRB cell proliferation assay, YOU. The format is cell-based. To be noted: for IC50: YOU. The procedure:
as §1

The subject of data set [1] is PC-3 prostate cancer cells. As to the kind of experiment: SRB cell proliferation assay, PC-3. The format is cell-based. The procedure:
as §1

A further data set concerns OVCAR-3 or A2780 cells. As to the kind of experiment: Colony formation assay. In kind it is cell-based, human. The procedure: FIG. 2A, FIG. 2B, and FIG. 2C show the effect of MPL on the colony formation activity of OVCAR-3 cells. Following incubation of cells with MPL (0, 5, 10 and 25 μmol/L) for 72 hours, cells were washed, transferred to agar plates, cultured with their regular growth medium and incubated under standard conditions for 2 weeks. Cells were then fixed with 100% methanol and stained with 1% crystal violet. Colonies (a cluster of cells greater than 50) were counted under a microscope (magnification ×5). The number of colonies counted for different experimental groups is expressed as a percentage of the control.
Following incubation of cells with MPL (0, 5, 10, 25 μM) for 72 h, cells were washed and then transferred to agar plates, cultured with their regular growth medium and incubated under standard conditions for 2 weeks. Cells were then fixed with 100% methanol and stained with 1% crystal violet. Colonies (cluster of cells greater than 50) were counted under microscope (magnification ×5). Number of colonies counted for different experimental groups is expressed as % of control.
For colony formation assay, […], such as OVCAR-3 or A2780 cells, were plated in 100 mm Petri dishes and allowed to attach overnight. […] Colonies consisting of more than 50 cells were counted under an inverted microscope. […]

Data set [2] has as its system cdk2, cdk4, cyclins A, and E. As to the kind of experiment: Western blot of cell cycle regulatory proteins. In kind it is cell-based. As to conditions: MPL 0, 5, 10, 25 μM. The procedure:
Whole-protein extracts were obtained and separated by electrophoresis and immunoblots were probed with the indicated antibodies. Western blot analysis showing the levels of these proteins in each extract was analysed using the relevant antibodies. The image represents the exposed radiographic film scanned. The house-keeping gene (GAPDH) was used to confirm similar protein loading and blot transfer.
Whole-protein extracts were obtained and separated by electrophoresis, and immunoblots were probed with the indicated antibodies. Western blot analysis showing the levels of these proteins in each extract was analysed using the relevant antibodies. The image represents the exposed radiographic film scanned. The house-keeping gene (GAPDH) was used to confirm similar protein loading and blot transfer.
(§2) Protein expression in cells was determined using western blot analysis. After treatment with the indicated concentrations of MPL, cell lysates were prepared and probed with antibodies for cdk2, cdk4, cyclin A, cyclin E, PARP-1 (1:1000 dilutions; Cell Signalling Technology), and p53 (1:200 dilutions; Santa Cruz Biotechnology).
Background: Immunoblotting shows a protein as a band on a membrane.

In data set [3] the test system is PARP-1 in OVCAR-3 and A2780 cells. As to the kind of experiment: Western blot of PARP and cleaved PARP. To be noted: MPL 0, 5, 10, 25 μM; 24, 48 or 72 h. The format is cell-based, human. The procedure: OVCAR-3 and A2780 cells grown under cell culture conditions were incubated with various concentrations of MPL [0, 5, 10, 25 μM] for 24, 48 or 72 hours. Cell lysates were then prepared and analysed by western blotting for the determination of PARP and cleaved PARP.
Exposure of OVCAR-3 or A2780 cells to MPL (0, 5, 10, 25 μM) for 24, 48 or 72 h causes cleavage of PARP, which leads to cellular disassembly and serves as a marker of dying cells.
as §2
To investigate whether the MPL-induced cell death involves cleavage of PARP, western blot analysis of lysates of MPL-treated cells for PARP-1 and cleaved PARP-1 was carried out. Cleavage of PARP-1 promotes apoptosis by preventing DNA-repair-induced survival.

The test system of a further data set is mTOR and p70S6K. As to the kind of experiment: Western blot of mTOR and p70S6K phosphorylation in OVCAR-3 cells. In kind it is cell-based, human. As to conditions: 10 μM MPL for 1, 4 or 24 hours. The procedure: Western blot analysis of cell lysates prepared from OVCAR-3 cells treated with 10 μM MPL for 1, 4 or 24 hours under cell culture conditions.
For data set [4] the following is noted: cited from earlier work.
The mark [5] stands for this setting: mesothelioma (Table 2), read-out: IC50 in suppressing proliferation.
[6] abbreviates: mesothelioma, 72 h, SRB assay (Table 1), read-out: IC50.
[7] abbreviates: highly resistant to chemotherapy.

As for `C[C@](C#N)(COc1cc(C#N)ccc1C(F)(F)F)NC(=O)c1ccc(SC(F)(F)F)cc1` [MPL, N-[(1S)-1-Cyano-2-(5-cyano-2-trifluoromethyl-phenoxy)-1-methyl-ethyl]-4-trifluoromethylsulfanyl-benzamide], the IC50 in the data set on A2780 cells (A2780, human epithelial ovarian cancer (Table 3), read-out: IC50 μM A2780) came to 11.3 ± 0.9 µM; with A2780 cells (Homo sapiens, A2780, ovarian cancer, 72 h, SRB assay (Table 1), read-out: IC50), 10 µM; in the data set on 1A9 cells (1A9, ovarian cancer (Table 2), read-out: IC50 in suppressing proliferation), 2.5 ± 0.45 µM; with 1A9 cells (1A9, ovarian cancer, 72 h, SRB assay (Table 1), read-out: IC50), 1.8 µM; in the data set with T47-D cells (breast cancer (Table 2), read-out: IC50 in suppressing proliferation), 5.3 ± 0.003 µM; in the data set on T47-D cells (breast cancer, 72 h, SRB assay (Table 1), read-out: IC50) it was 5.7 µM. The IC50 worked out at 26 µM with PET cells (mesothelioma) (setting [5]); 26.3 µM with PET cells (mesothelioma) (setting [6]); 23 µM with YOU cells (mesothelioma) (setting [5]); 23.1 µM with YOU cells (mesothelioma) (setting [6]); 21 µM in [1] (PC-3, prostate cancer (Table 2), read-out: IC50 in suppressing proliferation); 21.6 µM in [1] (PC-3, prostate cancer, 72 h, SRB assay (Table 1), read-out: IC50). Also, the “replication of PET cells” value in the data set on PET cells (mesothelioma) (setting [7]) was “profoundly suppressed”. Besides, the “replication of YOU cells” value in the data set on YOU cells (mesothelioma) (setting [7]) was “profoundly suppressed”. The “effect on PC-3 cells” value in data set [1] (chemo-resistant, androgen insensitive PC-3) is reported as “very effective”. Further, the colony formation result in the data set with OVCAR-3 or A2780 cells (72 h exposure (0, 5, 10, 25 μM), then 2 weeks drug free) is “profoundly hinders colony formation; also recorded: concentration-dependent inhibition of colony formation”. Moreover, the “clonogenic ability at higher concentrations” value with OVCAR-3 or A2780 cells (higher concentrations of MPL, 72 h exposure) is given as “almost complete loss of clonogenic ability”. Further, the “expression of cell cycle regulatory proteins cdk2, cdk4, cyclins A and E” value in [2] is “lower levels of cdk2, cdk4, cyclins A, and E”. In addition, in [3], the “cleavage of PARP” value is “PARP was cleaved; also recorded: highly induced cleavage of PARP”. Further, the “phosphorylation [activation] of mTOR and p70S6K” value in the data set with mTOR and p70S6K is reported as “inhibition of phosphorylation”. In addition, in data set [4] (1000 mg of MPL per kg of body weight per 24 hours, mammals), the clinical tolerance result is “well tolerated”. In addition, in data set [4] (animals), the “dose tolerated by animals when used as an anthelmintic” value is “up to 2000 mg/kg”. Moreover, the single-dose toxicity in [4] (single dose) is reported as > 2000 mg per kg of body weight.
